According to the NIST ThermoML archive (doi:10.1016/j.fluid.2018.04.024):

Conditions: Liquid, Vibrating tube method

CCCC(=O)OC [methyl butanoate]
mass density [kg/m3]
Conditions | 293.15 K | 303.15 K | 313.15 K | 323.15 K | 333.15 K | 343.15 K | 353.15 K | 363.15 K
100 kPa | 898.42 | 886.68 | 875.83 | 864.35 | 853.11 | 841.05 | 829.58 | 817.31
1000 kPa | 898.68 | 887.75 | 876.3 | 865.42 | 854.08 | 842.4 | 830.8 | 818.87
3000 kPa | 900.65 | 889.67 | 878.42 | 867.62 | 856.55 | 844.95 | 833.71 | 821.94
5000 kPa | 902.15 | 891.54 | 880.45 | 869.76 | 858.82 | 847.57 | 836.31 | 824.91
10000 kPa | 906.55 | 895.99 | 885.34 | 875.02 | 864.28 | 853.35 | 842.65 | 831.48
15000 kPa | 910.63 | 900.35 | 889.92 | 879.93 | 869.44 | 858.9 | 848.71 | 838.19
20000 kPa | 914.51 | 904.45 | 894.25 | 884.63 | 874.46 | 864.31 | 854.19 | 843.84
25000 kPa | 918.33 | 908.4 | 898.53 | 888.92 | 879.2 | 869.1 | 859.51 | 849.26
30000 kPa | 921.95 | 912.18 | 902.47 | 893.19 | 883.56 | 873.89 | 864.51 | 854.68
35000 kPa | 925.38 | 915.86 | 906.46 | 897.21 | 887.79 | 878.44 | 869.35 | 859.76
40000 kPa | 928.67 | 919.34 | 910.02 | 901.15 | 892.1 | 882.65 | 873.76 | 864.61
50000 kPa | 935.38 | 926.18 | 917.24 | 908.62 | 899.8 | 890.89 | 882.24 | 873.56
60000 kPa | 941.12 | 932.54 | 923.73 | 915.65 | 906.96 | 898.16 | 890.18 | 881.85

CCCCCCC(=O)OC [methyl heptanoate]
mass density [kg/m3]
Conditions | 293.15 K | 303.15 K | 313.15 K | 323.15 K | 333.15 K | 343.15 K | 353.15 K | 363.15 K
100 kPa | 880.16 | 870.66 | 861.82 | 852.25 | 843.03 | 833.48 | 824.35 | 815.19
1000 kPa | 880.29 | 871.46 | 862.16 | 853.12 | 843.81 | 834.64 | 825.27 | 816.36
3000 kPa | 881.98 | 873.07 | 863.9 | 854.89 | 845.84 | 836.7 | 827.61 | 818.75
5000 kPa | 883.19 | 874.66 | 865.62 | 856.64 | 847.68 | 838.79 | 829.66 | 821
10000 kPa | 886.99 | 878.5 | 869.71 | 860.97 | 852.16 | 843.47 | 834.76 | 826.14
15000 kPa | 890.49 | 882.18 | 873.55 | 865.07 | 856.43 | 848.02 | 839.63 | 831.57
20000 kPa | 893.86 | 885.64 | 877.29 | 869.08 | 860.63 | 852.59 | 844.11 | 836.11
25000 kPa | 897.18 | 889.08 | 880.89 | 872.69 | 864.64 | 856.55 | 848.48 | 840.56
30000 kPa | 900.36 | 892.3 | 884.32 | 876.31 | 868.31 | 860.57 | 852.65 | 845.01
35000 kPa | 903.34 | 895.46 | 887.66 | 879.74 | 871.91 | 864.43 | 856.65 | 849.23
40000 kPa | 906.22 | 898.49 | 890.73 | 883.15 | 875.61 | 867.96 | 860.37 | 853.33
50000 kPa | 912.14 | 904.43 | 896.98 | 889.53 | 882.2 | 875 | 867.57 | 860.82
60000 kPa | 917.16 | 909.95 | 902.59 | 895.63 | 888.39 | 881.19 | 874.32 | 867.91

CCCCCC(=O)OC [methyl hexanoate]
mass density [kg/m3]
Conditions | 293.15 K | 303.15 K | 313.15 K | 323.15 K | 333.15 K | 343.15 K | 353.15 K | 363.15 K
100 kPa | 884.48 | 874.56 | 865.26 | 855.18 | 845.43 | 835.2 | 825.57 | 815.64
1000 kPa | 884.65 | 875.42 | 865.64 | 856.16 | 846.26 | 836.39 | 826.5 | 816.87
3000 kPa | 886.42 | 877.13 | 867.5 | 858.01 | 848.43 | 838.54 | 828.96 | 819.47
5000 kPa | 887.67 | 878.76 | 869.26 | 859.89 | 850.38 | 840.78 | 831.13 | 821.87
10000 kPa | 891.64 | 882.75 | 873.55 | 864.44 | 855.15 | 845.7 | 836.55 | 827.32
15000 kPa | 895.33 | 886.63 | 877.59 | 868.76 | 859.63 | 850.49 | 841.75 | 833.11
20000 kPa | 898.81 | 890.21 | 881.48 | 872.98 | 864 | 855.28 | 846.44 | 837.93
25000 kPa | 902.28 | 893.78 | 885.29 | 876.76 | 868.18 | 859.46 | 851.08 | 842.64
30000 kPa | 905.55 | 897.24 | 888.86 | 880.55 | 871.99 | 863.7 | 855.46 | 847.27
35000 kPa | 908.69 | 900.52 | 892.33 | 884.15 | 875.8 | 867.75 | 859.68 | 851.7
40000 kPa | 911.73 | 903.67 | 895.54 | 887.68 | 879.63 | 871.46 | 863.59 | 856.02
50000 kPa | 917.83 | 909.79 | 901.99 | 894.33 | 886.48 | 878.77 | 871.08 | 863.88
60000 kPa | 923.06 | 915.57 | 907.83 | 900.65 | 892.97 | 885.3 | 878.16 | 871.24

CCCCCCCCC(=O)OC [methyl nonanoate]
mass density [kg/m3]
Conditions | 293.15 K | 303.15 K | 313.15 K | 323.15 K | 333.15 K | 343.15 K | 353.15 K | 363.15 K
100 kPa | 874.53 | 865.62 | 857.46 | 848.37 | 839.92 | 831.17 | 822.78 | 814.24
1000 kPa | 874.57 | 866.39 | 857.68 | 849.17 | 840.72 | 832.28 | 823.57 | 815.28
3000 kPa | 876.13 | 867.88 | 859.33 | 850.82 | 842.6 | 834.1 | 825.7 | 817.47
5000 kPa | 877.24 | 869.35 | 860.86 | 852.43 | 844.26 | 835.98 | 827.54 | 819.49
10000 kPa | 880.79 | 872.9 | 864.63 | 856.42 | 848.44 | 840.27 | 832.17 | 824.1
15000 kPa | 884.05 | 876.32 | 868.21 | 860.21 | 852.27 | 844.44 | 836.71 | 829.08
20000 kPa | 887.23 | 879.53 | 871.68 | 863.98 | 856.18 | 848.65 | 840.79 | 833.26
25000 kPa | 890.33 | 882.74 | 875.06 | 867.27 | 859.9 | 852.29 | 844.86 | 837.27
30000 kPa | 893.33 | 885.85 | 878.23 | 870.68 | 863.32 | 856.04 | 848.7 | 841.4
35000 kPa | 896.14 | 888.79 | 881.36 | 873.86 | 866.68 | 859.58 | 852.44 | 845.31
40000 kPa | 898.87 | 891.61 | 884.18 | 877.04 | 870.12 | 862.91 | 855.87 | 849.11
50000 kPa | 904.41 | 897.21 | 890.09 | 883.08 | 876.13 | 869.47 | 862.53 | 855.98
60000 kPa | 909.15 | 902.44 | 895.33 | 888.79 | 881.95 | 875.25 | 868.9 | 862.59
